One compound from article PMC9184620, “TAS1553, a small molecule subunit interaction inhibitor of ribonucleotide reductase, exhibits antitumor activity by causing DNA replication stress” (Communications Biology, 2022) can be followed below.

Data set [1] concerns the target T1, interaction between R1 and R2 (human RNR) (Homo sapiens, UniProt P23921).
T1 construct: host or cells: Escherichia coli (His-R1)
T1 sequence (P23921 1-792): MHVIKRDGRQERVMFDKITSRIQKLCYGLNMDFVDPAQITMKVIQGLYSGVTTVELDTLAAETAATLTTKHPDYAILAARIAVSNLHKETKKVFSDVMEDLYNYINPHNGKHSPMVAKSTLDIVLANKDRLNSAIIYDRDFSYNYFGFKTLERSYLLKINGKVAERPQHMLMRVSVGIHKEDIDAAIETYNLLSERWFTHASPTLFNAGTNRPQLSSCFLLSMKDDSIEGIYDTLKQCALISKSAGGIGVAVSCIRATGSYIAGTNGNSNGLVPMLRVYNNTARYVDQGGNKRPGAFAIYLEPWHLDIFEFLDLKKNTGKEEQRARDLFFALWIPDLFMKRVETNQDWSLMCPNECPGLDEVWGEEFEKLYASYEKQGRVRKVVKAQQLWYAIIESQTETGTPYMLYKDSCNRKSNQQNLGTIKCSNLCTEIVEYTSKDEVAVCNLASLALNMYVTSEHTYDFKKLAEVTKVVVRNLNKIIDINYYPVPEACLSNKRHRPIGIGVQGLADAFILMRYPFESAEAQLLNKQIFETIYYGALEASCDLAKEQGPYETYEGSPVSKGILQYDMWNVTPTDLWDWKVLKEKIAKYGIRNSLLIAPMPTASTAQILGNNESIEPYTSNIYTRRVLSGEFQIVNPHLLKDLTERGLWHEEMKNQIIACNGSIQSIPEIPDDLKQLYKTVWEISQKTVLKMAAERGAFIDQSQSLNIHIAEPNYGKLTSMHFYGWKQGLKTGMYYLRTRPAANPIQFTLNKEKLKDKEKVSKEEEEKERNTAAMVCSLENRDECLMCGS
As to the kind of experiment: AlphaLISA binding assay (interaction between His-R1 and GST-R2). The settings on record: recombinant R1 and R2; mean ± SD.

The next data set concerns MV-4-11 cells. As to the kind of experiment: Cell proliferation assay (CellTiter-Glo), MV-4-11. Format: cell-based. Conditions: Homo sapiens, MV4-11, 72 h; MV-4-11, 3 days exposure. The procedure: Next, we evaluated both concentration-dependent and time-dependent effects of TAS1553 on the dATP pool in HCC38 and MV-4-11 cell lines using absolute quantification. After 2 h of TAS1553 exposure, there was a concentration-dependent reduction of intracellular dATP pool in both cell lines (Fig. 2c). Furthermore, the intracellular dATP pool was reduced within 30 minutes when treated with TAS1553 at 1 or 10 µmol/L in both cell lines (Fig. 2d), consistent with its inhibitory effect on the protein-protein interaction (Fig. 2a).
Cell proliferation assay was performed as reported previously. Briefly, cells were plated and incubated for 1 day, followed by 3 days of exposure to the compound. After compound exposure, viable cells were detected by using the CellTiter-Glo luminescent cell viability assay (Promega). GI50 values were calculated using the SAS software package. The experiment was performed in triplicates.

Another data set is described as follows: Plasma exposure in rats. Conditions: nude rats. How it is done: First, we analyzed the exposure of TAS1553 when administered orally.
(§1) Next, we evaluated the antitumor activity of a high-dose administration of TAS1553 and cytarabine in rats bearing MV-4-11 xenografts. […] The rats were treated with cytarabine for 5 days at 16 and 32 mg/kg. […] In addition to the hematologic tumor, we evaluated the antitumor activity of TAS1553 in mice implanted with HCC38 cell line as a solid tumor model. […] Finally, TAS1553 was evaluated for its survival benefit in a mouse model. To achieve this, we established mice bone marrow cells harboring the human MLL-AF9 fusion gene, which is known as a driver gene for AML in humans as well as mice[48]. Mice were transplanted with the cells through the tail vein and the treatment with TAS1553 was started 11 days post-implantation.
F344/NJcl-rnu/rnu rats were orally administered with TAS1553 (two animals per group). The plasma samples were collected at each point. TAS1553 concentrations in plasma were measured with the LC-MS/MS.

For the next data set, the system named is HCC38 xenograft. Kind of data set: Antitumor activity in mice bearing HCC38 xenografts. Format: in vivo, mouse. Conditions: 100 mg/kg oral once daily for 14 days. The procedure:
as §1
For the subcutaneous implantation model of MV-4-11, F344/NJcl-rnu/rnu rats were irradiated with X-ray (4 Gy) to improve the efficiency of xenograft implantation. Two days after X-ray irradiation, MV-4-11 cells suspended in PBS with 50 vol% Matrigel were inoculated into the rats (2 × 10^7 cells/animal). In the mice subcutaneous implantation model, HCC38 cells suspended same as above were inoculated into male BALB/cAJcl-nu/nu mice (1 × 10^7 cells /body). The animals were randomized and administered with the compound for 14 days. Antitumor activity and body weight change were evaluated as previously reported. Dunnett test using the SAS software package in EXSUS (CAC Croit) was used to compare the tumor volume (P < 0.05).

As to `Cc1ccc(F)c([C@@H](C)[C@H](NS(=O)(=O)c2ccc(Cl)cc2C(N)=O)c2n[nH]c(=O)o2)c1C` [TAS1553, 5-chloro-2-{N-[(1S,2R)-2-(6-fluoro-2,3-dimethylphenyl)-1-(5-oxo-4,5-dihydro-1,3,4-oxadiazol-2-yl)propyl]sulfamoyl}benzamide], in data set [1], the IC50 came to 39.6 ± 4.2 nM. The compound further returned a 50% growth inhibitory concentration (GI50) with MV-4-11 cells of 393 nM. In “Plasma exposure in rats”, the “plasma concentration after single oral dose” value is given as “dose-dependent rise”. The T/C ratio in the data set on HCC38 xenograft came out at 40.4%.
